{
  "source": "paper PMC5051147",
  "about": "“Ester Hydrolysis Differentially Reduces Aconitine-Induced Anti-hypersensitivity and Acute Neurotoxicity: Involvement of Spinal Microglial Dynorphin Expression and Implications for Aconitum Processing” (Frontiers in Pharmacology, 2016)",
  "key": {"[1]": {"system": "heat hyperalgesia in spinal L5/L6 nerve–ligated neuropathic rats", "assay": "Heat hyperalgesia (radiant heat paw withdrawal latency) after intrathecal injection in spinal nerve-ligated neuropathic rats", "assay_type": "in vivo, rat", "method": "(§1) An 18-cm polyethylene catheter (PE-10: 0.28-mm inner diameter and 0.61-mm outer diameter, Clay Adams, Parsippany, NJ, USA) with a volume of 13 μL was inserted into the lumbar level of the spinal cord as described elsewhere under inhalational isoflurane anesthesia (4% for induction and 1% for maintenance) run by an anesthesia meter (Ugo Basile Gas Anesthesia System, Comerio, Italy). Two days after recovery from anesthesia, the placement of the catheter in the spinal cord was verified by administration of 4% lidocaine (10 μL, followed by 15 μL of saline for flushing). Rats that had no motor impairment after placement of the intrathecal catheter were considered for the study, and rats that developed immediate bilateral paralysis of the hindlimbs after intrathecal administration of lidocaine were selected for the study. For intrathecal administration of the control and test articles, 10 μL of each drug was injected with a 50-μL microinjector (Shanghai Anting Micro-Injector Factory, Shanghai, China) and was flushed with 15 μL of normal saline solution.\n(§2) To induce hypersensitivity to neuropathic pain, the rats were subjected to spinal nerve ligation as previously described [Kim and Chung (1992)] and [Zhang et al. (2013)]. Unilateral ligation of the L5 and L6 spinal nerves was performed under inhalational isoflurane anesthesia (4% for induction and 1% for maintenance) run by an anesthesia meter (Ugo Basile Gas Anesthesia System). The left L5 and L6 spinal nerves were isolated and tightly ligated with 6-0 silk thread. After ligation, the wound was sutured and the rats were returned to their home cages for recovery. After spinal nerve ligation, only those rats with marked unilateral allodynia to mechanical stimulation (i.e., a hindpaw withdrawal threshold of less than 8 g on the operated side) and with no major impairment were included in the study. Drug testing started 2–4 weeks after spinal nerve ligation.\nTo assess heat hyperalgesia, the rats were put in a plexiglass box on an elevated glass surface. After an adaptation period of at least 30 min, radiant heat was applied to the plantar medial surface of each hindpaw. The hindpaw withdrawal latency was measured with a Model 390G Plantar Test Analgesia Meter (IITC Life Science Inc.). To prevent tissue damage, the latency cutoff was set at 30 s. The paw withdrawal latency was defined as the time from the onset of radiant heat application to the withdrawal of the hindpaw. Both hindpaws were tested independently three times with a 5-min interval between trials. The result for each test was calculated as the mean of the three repeated measurements.\nThe percentage of maximal possible effect (% MPE) was calculated using the following formula: (postdrug threshold in ipsilateral hindlimb – baseline threshold in ipsilateral hindlimb)/(baseline threshold in contralateral hindlimb – baseline threshold in ipsilateral hindlimb) × 100 ([Bowersox et al., 1996]). A % MPE value near 100 indicates normal mechanical thresholds (i.e., near contralateral thresholds), and a value near 0 indicates allodynia. For the dose-response curve analysis, the parameters (i.e., minimum effect; Emax, median effective concentration or dose, or median toxic or lethal dose [EC50, ED50, TD50, or LD50], and Hill coefficient [n]) were calculated from the individual dose-response curves using the Prism program (version 5.01, GraphPad Software, San Diego, CA, USA). […]"}, "mice": {"system": "mice", "details": "intravenous injection in mice; ref Mizugaki and Ito, 2005; cited from earlier work"}, "[2]": {"system": "pain hypersensitivity in spinal nerve-ligated neuropathic rats", "assay": "Anti-hypersensitivity, normalized (anti-allodynia and anti-hyperalgesia ED50 averaged)", "assay_type": "in vivo, rat", "details": "intrathecal; average of allodynia and hyperalgesia ED50", "method": "(§3) The percentage of maximal possible effect (% MPE) was calculated using the following formula: (postdrug threshold in ipsilateral hindlimb – baseline threshold in ipsilateral hindlimb)/(baseline threshold in contralateral hindlimb – baseline threshold in ipsilateral hindlimb) × 100 ([Bowersox et al., 1996]). A % MPE value near 100 indicates normal mechanical thresholds (i.e., near contralateral thresholds), and a value near 0 indicates allodynia. For the dose-response curve analysis, the parameters (i.e., minimum effect; Emax, median effective concentration or dose, or median toxic or lethal dose [EC50, ED50, TD50, or LD50], and Hill coefficient [n]) were calculated from the individual dose-response curves using the Prism program (version 5.01, GraphPad Software, San Diego, CA, USA). To determine the parameters of the dose-response curves, the values of response (Y) were fitted by non-linear least-squares curves to the relation Y = a + bx, where x = [D]^n/(ED50^n + [D]^n), [C]^n/(EC50^n + [C]^n), [D]^n/(TD50^n + [D]^n) or [D]^n/(LD50^n + [D]^n), to give each value of ED50, EC50, TD50, or LD50 and b (Emax) yielding a minimum residual sum of squares of deviations from the theoretical curve ([Wang and Pang, 1993]).\nTable 1 summarizes the ED50 values in mole base for aconitine, benzolyaconine, and aconine to block pain hypersensitivity. Because anti-allodynia and anti-hyperalgesia were closely correlated, their ED50 values were averaged to obtain a normalized ED50 for anti-hypersensitivity. The ED50 ratios for aconitine and benzolyaconine to block mechanical allodynia and heat hyperalgesia were 1:92 and 1:110, with a normalized ED50 ratio of 1:102."}, "[3]": {"system": "mechanical allodynia in spinal L5/L6 nerve–ligated neuropathic rats", "assay": "Mechanical allodynia (von Frey paw withdrawal threshold) after intrathecal injection in spinal nerve-ligated neuropathic rats", "assay_type": "in vivo, rat", "method": "as §1, §2\nTo evaluate mechanical allodynia, the animals were acclimatized for at least 30 min to the test environment, namely, a plexiglass box on a metal grid (0.5 cm × 0.5 cm). The hindpaw withdrawal threshold was measured with a 2450 CE Electronic von Frey hair (IITC Life Science Inc, Woodland Hill, CA, USA). An electronic handheld transducer with a No. 15 monofilament was applied perpendicularly to the medial surface of the hindpaws with increasing force (ranging from 0.1 to 90 g) until the rat suddenly withdrew or licked the hindpaw. The lowest force that produced a withdrawal response was considered to be the threshold, which was the mean of three repeated measurements made in a 5-min interval.\nas §3"}},
  "note": "Entries after “also recorded” stand apart in the source; their conditions may differ.",
  "data": [
    {"compound": "CCN1C[C@]2(COC)[C@H](O)C[C@H](OC)[C@@]34[C@@H]5C[C@@]6(O)[C@H](OC(=O)c7ccccc7)[C@@H]5[C@@](OC(C)=O)([C@@H]([C@H](OC)[C@H]23)[C@@H]14)[C@@H](O)[C@@H]6OC", "note": "[Aconitine, aconitine]", "values": [
      {"measurement": "Emax, blockade of thermal hyperalgesia", "setting": "[1]; 1 h after injection", "result": 100, "unit": "% MPE"},
      {"measurement": "ED50, blockade of thermal hyperalgesia", "setting": "[1]; % MPE at 1 h after injection", "result": 32, "unit": "pmol"},
      {"measurement": "LD50", "setting": "mice", "result": 0.12, "unit": "mg/kg"},
      {"measurement": "Normalized ED50 for anti-hypersensitivity", "setting": "[2]", "result": 35, "unit": "pmol"},
      {"measurement": "Anti-allodynic effect in ipsilateral paws", "setting": "[3]; intrathecal 100 ng", "result": "marked and reversible anti-allodynic effect; also recorded: marked and reversible anti-allodynia"},
      {"measurement": "Time of peak effect on mechanical allodynia and heat hyperalgesia", "setting": "[3]; intrathecal, ipsilateral paws, after injection", "result": 1, "unit": "h"},
      {"measurement": "Emax, blockade of mechanical allodynia", "setting": "[3]; intrathecal, 1 h after injection", "result": 61.9, "unit": "% MPE"},
      {"measurement": "ED50, blockade of mechanical allodynia", "setting": "[3]; intrathecal, % MPE at 1 h after injection", "result": 39, "unit": "pmol"},
      {"measurement": "Effect on withdrawal responses in the contralateral paws", "setting": "[3]; intrathecal, mechanical and thermal stimuli", "result": "did not significantly alter the withdrawal responses in the contralateral paws"}
    ]}
  ]
}
